Data set [1] can be described thus: Pharmacokinetic profile in male Swiss albino mice. Conditions: mouse, in vivo; for AUC / Cmax / clearance / half-life: intravenous single dose 5 mg/kg body weight; for bioavailability: po. The procedure:
The following compounds were dosed to male Swiss albino mice to determine the pharmacokinetic profiles.

The test system of data set [2] is Bacillus subtilis (ΔFabI, ΔFabL; Pxylose SaFabI). Kind of data set: Target specificity: MIC in B. subtilis expressing S. aureus FabI under xylose inducible promoter. Format: cell-based. The procedure: To test for target specificity, the MIC was determined in a Bacillus subtilis strain in which the two FabI homologues (FabI and FabL) were deleted and replaced with S. aureus FabI (Sa FabI) under a Xylose inducible promoter. By varying the amount of xylose in the growth medium, the expression of FabI was proportionately modified. Compounds specifically targeting Sa FabI show an increased MIC when higher amounts of FabI are present in the cell (high Xylose concentrations). In contrast, when FabI levels are low, the cell becomes hypersusceptible, reducing the MIC (low Xylose concentrations). […] Shown below are data for target specificity.

Data set [3] is described as follows: Metabolic stability in mouse liver microsomes. It counts as in vitro ADME. The procedure: (§1) Shown below are the biological activities of representative compounds of the invention. The compounds were tested by the microbroth dilution method (National committee for Clinical Laboratory Standards, M07-A8, Volume 29, 2009) to determine the Minimum Inhibitory Concentration (MIC) against Methicillin sensitive and resistant Staphylococcus aureus. The MICs in the presence of 10% BSA was also tested. Further, select compounds were tested for metabolic stability using mouse liver microsomes based on published protocols (Journal of Biological Sciences, 2008, 8, 1110-1114).
On the technique in general: Liver microsomes are a subcellular fraction often used to study metabolism.

Data set [4] deals with Staphylococcus aureus (ATCC29213). The experiment in a line: MIC by microbroth dilution, methicillin sensitive S. aureus. Format: cell-based. Conditions: read-out: Minimum inhibitory concentration (MIC) Staphylococcus aureus (ATCC29213). Here is the method: as §1
Background: Broth dilution looks for growth in wells or tubes with falling amounts of substance.

Data set [5] has as its system Methicillin resistant Staphylococcus aureus (ATCC 33591). The experiment in a line: MIC by microbroth dilution, methicillin resistant S. aureus. Format: cell-based. Conditions: ATCC33591, read-out: Minimum inhibitory concentration (MIC) Methicillin resistant Staphylococcus aureus (ATCC 33591). Here is the method:
as §1

For data set [6] the test system is unchanged. Kind of data set: MIC in the presence of BSA. It counts as cell-based. Conditions: ATCC33591, 10% BSA. The procedure: as §1
Setting [7] is: read-out: MIC in the presence of 0.005% Xylose (low Xylose concentration).
Where [8] appears, read: read-out: MIC in the presence of 0.5% Xylose (high Xylose concentration).

≈ marks a conversion by molar mass, not a printed value. Read-outs that look alike come from different tables or passages of the source. Where only a bound is given, the exact number is not on record here.

The source of these data is patent publication US9115149B2, “Heterocyclic compounds as inhibitors of fatty acid biosysnthesis for bacterial infections” (Vitas Pharma Research Private Limited, priority 2011, dated 2015).

What is called AUC is concentration integrated over time. Lower therefore signals less exposure. For orientation: Cmax means the peak of the concentration-time curve. As usually defined, the clearance is the volume of plasma or blood freed of the substance per unit of time. A higher clearance goes with a high capacity for elimination. As a reminder, the half-life is the time needed for the level to fall by half in the phase considered. Lower therefore signals fast loss. As a reminder, the bioavailability is dose-corrected exposure relative to a reference, in per cent. Lower therefore signals little systemic uptake.

In data set [1], `CCC1(CC)C(=O)Nc2ncc(/C=C/C(=O)N(C)Cc3cc4ccccc4n3C)cc21` [VT-02-00064, (E)-3-(3,3-diethyl-2-oxo-2,3-dihydro-1H-pyrrolo[2,3-b]pyridin-5-yl)-N-methyl-N-((1-methyl-1H-indol-2-yl)methyl)acrylamide] showed an exposure (AUC) of 1400 ng·h/mL, a Cmax of 1810 ng/mL, a clearance of 59.4 mL/min/kg and a half-life of 26.4 min. Also, in data set [1], the bioavailability amounted to 51.5%. Also, the MIC in data set [2] (setting [7]) was 30 ng/mL. For the same compound, the MIC in data set [2] (setting [8]) stood at 250 ng/mL. In addition, the “Metabolic stability (mouse liver microsomes) % of compound remaining after 30 minutes” value in data set [3] is 18%. In addition, the MIC in data set [4] was 120 ng/mL (≈ 0.288 µM). Also, the MIC in data set [5] is 120 ng/mL (≈ 0.288 µM). In addition, in data set [6], the MIC turned out to be 1000 ng/mL.
Turning to `CN(Cc1cc2ccccc2n1C)C(=O)/C=C/c1cnc2c(c1)C1(CCC1)C(=O)N2` [VT-02-00070, (E)-N-methyl-N-((1-methyl-1H-indol-2-yl)methyl)-3-(2′-oxo-1′,2′-dihydrospiro[cyclobutane-1,3′-pyrrolo[2,3-b]pyridine]-5′-yl)acrylamide], the MIC was less than 0.000119 ng/mL in data set [2] (setting [7]); 7.8 ng/mL in data set [2] (setting [8]); 500 ng/mL (≈ 1.25 µM) in data set [4]; 500 ng/mL (≈ 1.25 µM) in data set [5]; 2000 ng/mL in data set [6]. In data set [3], the “Metabolic stability (mouse liver microsomes) % of compound remaining after 30 minutes” value is given as 45%.
For the compound `CCC1(CC)C(=O)Nc2ncc(/C=C/C(=O)N(C)Cc3oc4ccccc4c3C)cc21` [VT-02-00071, (E)-3-(3,3-diethyl-2-oxo-2,3-dihydro-1H-pyrrolo[2,3-b]pyridin-5-yl)-N-methyl-N-((3-methylbenzofuran-2-yl)methyl)acrylamide], the AUC in data set [1] turned out to be 1220 ng·h/mL. The same compound had a Cmax in data set [1] of 1550 ng/mL. Besides, in data set [1], the clearance was 67.8 mL/min/kg. Besides, the half-life in data set [1] is 31.2 min. For the same compound, the bioavailability in data set [1] was 26%. Moreover, the MIC in data set [2] (setting [7]) was determined as 0.000477 ng/mL; in data set [2] (setting [8]) it was 0.06 ng/mL; in data set [4] it was 15 ng/mL (≈ 0.0359 µM); in data set [5], 15 ng/mL (≈ 0.0359 µM); in data set [6], 250 ng/mL. The “Metabolic stability (mouse liver microsomes) % of compound remaining after 30 minutes” value in data set [3] worked out at 12%.
As for `Cc1c(CN(C)C(=O)/C=C/c2cnc3c(c2)C2(CCC2)C(=O)N3)sc2ccccc12` [VT-02-00073, (E)-N-methyl-N-((3-methylbenzo[b]thiophen-2-yl)methyl)-3-(2′-oxo-1′,2′-dihydrospiro[cyclobutane-1,3′-pyrrolo[2,3-b]pyridine]-5′-yl)acrylamide], in data set [1], the AUC stood at 7320 ng·h/mL, the peak level (Cmax) was 4380 ng/mL, the clearance was found to be 11.1 mL/min/kg and the half-life is 113 min. Also, in data set [1], the bioavailability was 38.5%. Further, the MIC in data set [2] (setting [7]) is 0.00381 ng/mL. In data set [2] (setting [8]), the MIC worked out at 0.97 ng/mL. Also, the “Metabolic stability (mouse liver microsomes) % of compound remaining after 30 minutes” value in data set [3] turned out to be 11%. For the same compound, the MIC in data set [4] was found to be 15 ng/mL (≈ 0.0359 µM). For the same compound, the MIC in data set [5] was determined as 15 ng/mL (≈ 0.0359 µM). Also, in data set [6], the MIC was 250 ng/mL.
In the case of `Cc1c(CN(C)C(=O)/C=C/c2cnc3c(c2)C2(CCCC2)C(=O)N3)sc2ccccc12` [VT-02-00074, (E)-N-methyl-N-((3-methylbenzo[b]thiophen-2-yl)methyl)-3-(2′-oxo-1′,2′-dihydrospiro[cyclopentane-1,3′-pyrrolo[2,3-b]pyridine]-5′-yl)acrylamide], the MIC in data set [2] (setting [7]) is 7.8 ng/mL; in data set [2] (setting [8]) it was 60 ng/mL; in data set [4], 60 ng/mL (≈ 0.139 µM); in data set [5], 60 ng/mL (≈ 0.139 µM); in data set [6], 1000 ng/mL. Besides, the “Metabolic stability (mouse liver microsomes) % of compound remaining after 30 minutes” value in data set [3] was found to be 8%.
With `Cc1c(CN(C)C(=O)/C=C/c2cnc3c(c2)C2(CCCCC2)C(=O)N3)sc2ccccc12` [VT-02-00075, (E)-N-methyl-N-((3-methylbenzo[b]thiophen-2-yl)methyl)-3-(2′-oxo-1′,2′-dihydrospiro[cyclohexane-1,3′-pyrrolo[2,3-b]pyridine]-5′-yl)acrylamide], the MIC in data set [2] (setting [7]) was less than 0.00191 ng/mL; in data set [2] (setting [8]), 0.00763 ng/mL; in data set [4] it was 500 ng/mL (≈ 1.12 µM); in data set [5], 500 ng/mL (≈ 1.12 µM); in data set [6] it was 4000 ng/mL. Also, the “Metabolic stability (mouse liver microsomes) % of compound remaining after 30 minutes” value in data set [3] came out at 5%.
With `CCC1(CC)C(=O)Nc2ncc(/C=C/C(=O)N(C)Cc3sc4ccccc4c3C)cc21` [VT-02-00078, (E)-3-(3,3-diethyl-2-oxo-2,3-dihydro-1H-pyrrolo[2,3-b]pyridin-5-yl)-N-methyl-N-((3-methylbenzo[b]thiophen-2-yl)methyl)acrylamide], the area under the curve (AUC) in data set [1] came to 1410 ng·h/mL. This compound gave a clearance in data set [1] of 58.5 mL/min/kg. The half-life in data set [1] was 19.2 min. Besides, the bioavailability in data set [1] stood at 67.1%. In addition, the MIC in data set [2] (setting [7]) is less than 2.98e-05 ng/mL; in data set [2] (setting [8]) it was 1.91e-05 ng/mL; in data set [4] it was 15 ng/mL (≈ 0.0346 µM); in data set [5] it was 15 ng/mL (≈ 0.0346 µM); in data set [6] it was 250 ng/mL. In addition, the “Metabolic stability (mouse liver microsomes) % of compound remaining after 30 minutes” value in data set [3] worked out at 15%.
With `CN(Cc1cn(C)c2ccccc12)C(=O)/C=C/c1ccc2c(c1)C1(CCC1)C(=O)N2` [VT-02-00085, (E)-N-methyl-N-((1-methyl-1H-indol-3-yl)methyl)-3-(2′-oxospiro[cyclobutane-1,3′-indoline]-5′-yl)acrylamide], the MIC in data set [2] (setting [7]) amounted to 0.97 ng/mL; in data set [2] (setting [8]), 60 ng/mL; in data set [4], 60 ng/mL (≈ 0.15 µM); in data set [5], 60 ng/mL (≈ 0.15 µM); in data set [6], 1000 ng/mL. Moreover, in data set [3], the “Metabolic stability (mouse liver microsomes) % of compound remaining after 30 minutes” value came out at 33%.
For `Cc1ccc2oc(CN(C)C(=O)/C=C/c3ccc4c(c3)C3(CCC3)C(=O)N4)c(C)c2c1` [VT-02-00086, (E)-N-((3,5-dimethylbenzofuran-2-yl)methyl)-N-methyl-3-(2′-oxospiro[cyclobutane-1,3′-indoline]-5′-yl)acrylamide], the MIC in data set [2] (setting [7]) stood at 60 ng/mL; in data set [2] (setting [8]) it was 500 ng/mL; in data set [4], 500 ng/mL (≈ 1.21 µM); in data set [5], 500 ng/mL (≈ 1.21 µM); in data set [6], 8000 ng/mL. The “Metabolic stability (mouse liver microsomes) % of compound remaining after 30 minutes” value in data set [3] is listed as 26%.
As to `Cc1c(CN(C)C(=O)/C=C/c2cnc3c(c2)C2(CCC2)C(=O)N3)oc2ccccc12` [VT-02-00092, (E)-N-methyl-N-((3-methylbenzofuran-2-yl)methyl)-3-(2′-oxo-1′,2′-dihydrospiro[cyclobutane-1,3′-pyrrolo[2,3-b]pyridine]-5′-yl)acrylamide], the MIC came out at 3.9 ng/mL in data set [2] (setting [8]), 60 ng/mL (≈ 0.149 µM) in data set [4], 60 ng/mL (≈ 0.149 µM) in data set [5] and 250 ng/mL in data set [6]. The “Metabolic stability (mouse liver microsomes) % of compound remaining after 30 minutes” value in data set [3] is on record as 22%.
